Measurements: the NIST ThermoML archive (doi:10.1021/je301220s)
± gives the expanded uncertainty stated by the source.

Settings: Liquid; for mass density: 298.15 K, 101.33 kPa, Vibrating tube method

SMILES | mass density [kg/m3] | Normal boiling temperature [°C]
Cc1ccccc1C [1,2-dimethylbenzene] | 875.81 ± 0.16 | 144.40 ± 0.5
Cc1cccc(C)c1 [1,3-dimethylbenzene] | 860.06 ± 0.16 | 139.13 ± 0.5
CCc1ccccc1 [ethylbenzene] | 862.57 ± 0.16 | 136.16 ± 0.5
Cc1ccc(C)cc1 [1,4-dimethylbenzene] | 856.54 ± 0.16 | 138.28 ± 0.5
CCC(C)CO (stereo not given) [2-methyl-1-butanol] | 814.83 ± 0.17 | 128.76 ± 0.5
